# Test results taken from US20210308101A1, “METHODS OF TREATING FIBROMYALGIA” (Aptinyx Inc., priority 2019, published 2021).
# Columns and labels:
# Assay type in all cases: in vivo, human
# [1] = system: subjects with fibromyalgia; assay: Fibromyalgia Survey Questionnaire (Widespread Pain Index, Symptom Severity Score)
# Description: As used herein, “FSQ” is Fibromyalgia Survey Questionnaire, which is a patient-reported tool to assess the 2011 ACR Fibromyalgia criteria circumventing the requirement of physician assessment. The criteria review the widespread pain index, and somatic symptoms. The somatic symptoms of fatigue, waking unrefreshed, and cognitive symptoms were scored from 0 (no problem) to 3 (severe, pervasive, continuous, life disturbing problems). Symptoms of headaches, pain or cramps in the lower abdomen, and depression were given a score of 1, if they had occurred in the past 3 months.
# As used herein, “WPI” is the Widespread Pain Index, which is a score comprised of 19 areas where subjects experienced pain within the last week with a yes or no response for each area. Each individual yes response has a numeric value of 1 and 0 is assigned to each no response. The WPI score had values ranging from 0 to 19. If any of the individual area responses were missing, the WPI score was not calculated. Here are the 19 areas that were assessed: Left Jaw, Right Jaw, Left Shoulder, Right Shoulder, Right Upper Arm, Left Upper Arm, Right Lower Arm, Left Lower Arm, Neck, Upper Back, Chest, Abdomen, Lower Back, Right Hip, Left Hip, Right Upper Leg, Left Upper Leg, Right Lower Leg, and Left Lower Leg.
# As used herein, “SS” is the Symptom Severity Score, based on 3 questions each having a numeric score ranging from 0 to 3 and an additional 3 questions each having a numeric score of 0 or 1. If all 6 questions were given a numeric score, then the Symptom Severity Score ranged from 0 to 12. If any of the individual scores were missing, the Symptom Severity Score was not calculated.
# As used herein, “ACR Fibromyalgia Criteria” is 2011 American College of Rheumatology Fibromyalgia Criteria, and includes FSQ, WPI, and SS. These assessments were analyzed at Day 1, Week 2, Week 4, Week 6, and Follow-up (Week 7). Both the observed Widespread Pain Index score and Symptom Severity Score, changes from baseline, and changes from treatment periods were summarized using descriptive statistics. Additionally, the treatment group comparisons were analyzed using the paired t-test and nonparametric Wilcoxon signed-rank test. A frequency distribution table was presented for yes/no responses for these categories: • Widespread Pain Index ≥7 and Symptom Severity Score >5 • Widespread Pain Index is 3 to 6 and the Symptom Severity Score is >9
# [2] = system: subjects with fibromyalgia; assay: QST: digital algometer pressure pain threshold (trapezius, wrist, patella)
# Method: Localized pressure pain sensitivity was also measured bilaterally at 3 additional body regions: trapezius, wrist, and patella. Examination of multiple sites across all quadrants of the body permitted analysis of the distribution of pain sensitivity. Sensitivity was measured using a digital algometer with a 1-cm^2 flat rubber probe. […] Measurements were conducted 2 to 3 times (15- to 20-second intervals) at each site.
# QST data were analyzed at the University of Michigan CPFRC. Dependent variables were the MAST derived outcomes (Pain50, pressure pain threshold, pain tolerance, and pain ratings at 2 kg/cm2), algometry-derived pressure pain thresholds (mean of three trials) at each anatomical site, average cuff intensity ratings (mean of ratings at all stimulus levels during the ascending or random sequences), and average visual task unpleasantness and brightness intensity ratings (mean of ratings at all stimulus levels). Practice data were not analyzed. Overall pain intensity and unpleasantness NRS scores as well as stimulus response curves for each test were assessed during post hoc analyses. Data points displaying measurement artefacts, including device malfunction or user error, were set to missing. Single subject QST variables were analyzed using paired t-tests and/or nonparametric Wilcoxon signed-rank tests in SPSS or R.
# posterior insula Glx = assay: 1H-MRS Glx levels, posterior insula (pre and post evoked cuff pain); conditions: for pain-evoked increase in posterior insula Glx at the visit: p>0.60; for posterior insula pain-related Glx/tCr level increases: 11 patients; for posterior insula evoked pain Glx levels compared to the placebo visit: p<0.10, FIG. 15
# Description: As used herein, “^1H-MRS” is Magnetic Resonance Spectroscopy (1H-MRS) or Proton Magnetic Resonance Spectroscopy. Proton magnetic resonance spectroscopy is a noninvasive imaging technique that allows in vivo determination of biochemical parameters within brain tissue. Proton magnetic resonance spectroscopy data were used to collect brain neurotransmitter levels of Glu and combined glutamate+glutamine metabolites (Glx). This method provides metrics amenable to longitudinal studies such as those proposed here. High-resolution anatomical scans can isolate identical brain structures within individuals over time, thus minimizing error that otherwise would occur because of slight differences in voxel location from 1 evaluation to the next. Previous ^1H-MRS studies have utilized this approach to examine changes in the levels of CNS metabolites in test-retest studies of drug effects. This study expanded the investigation to a variety of regions throughout the brain including: • Right anterior insula • Right posterior insula (This region was acquired twice: once prior to and once following evoked cuff pain. All other voxels were acquired once.) • Perigenual/rostral anterior cingulate cortex (midline) • Dorsal/anterior cingulate cortex (midline) • Precuneus (midline) • Medial prefrontal cortex • Thalamus (optional if time permitted)
# Proton magnetic resonance spectroscopy data were collected using the same scanners used for fMRI. Voxels of interest were placed in each of the aforementioned brain regions to obtain levels of Glu and Glx.
# Raw data from each single-voxel spectroscopy sequence underwent manual post-processing using ^1H-MRS software (LCModel; Stephen Provencher, Oakville, Ontario, Canada). LCModel uses a linear combination of individual spectra obtained from pure molecular species to fit the experimental spectra. Glx values were calculated as an absolute concentration using the water signal for normalization or as a ratio to creatine. Correction for cerebral spinal fluid (CSF) volume, which can dilute ^1H-MRS-derived Glx values, was also performed. For this we used Voxel Based Morphometry, a toolbox that operates within SPM. Metabolite concentrations were excluded if the Cramér-Rao bounds were greater than 20%.
# The analysis visit comparisons stated were analyzed using paired t-tests and/or nonparametric Wilcoxon signed-rank tests of Glx levels at each voxel independently in SPSS. The primary analyses were comparisons between posterior insula and anterior cingulate cortex Glx levels following placebo and NYX-2925 (either 20 or 200 mg) administration.
# [3] = Week 2 (placebo) to Week 4 (NYX-2925 20 mg), not statistically significant
smiles,measurement,setting,value
"CC(C)C(=O)N1CCC[C@]12CN([C@H](C(N)=O)[C@@H](C)O)C2=O [NYX-2925, (2S, 3R)-3-hydroxy-2-((R)-5-isobutyryl-1-oxo-2,5-diazaspiro[3.4]octan-2-yl)butanamide]","Symptom Severity score, mean change",[1]; [3],−0.3
same,"Widespread Pain Index, mean change",[1]; [3],0.0
same,"Widespread Pain Index, mean change","[1]; Week 2 (placebo) to Week 6 (NYX-2925 200 mg), not statistically significant",−1.3
same,"Symptom Severity score, mean change","[1]; Week 2 (placebo) to Week 6 (NYX-2925 200 mg), statistically significant",−0.9
same,right trapezius pressure pain threshold,"[2]; 200 mg, placebo 1.77±1.53, p=0.047",1.58±1.37 kgf/cm^2
same,left wrist pressure pain threshold,"[2]; NYX-2925 20 mg, baseline 1.60±1.11, p=0.042",1.30±1.08 kgf/cm^2
same,right wrist pressure pain threshold,"[2]; NYX-2925 20 mg, baseline 1.64±1.30, p=0.021",1.28±1.10 kgf/cm^2
same,right wrist pressure pain threshold,"[2]; NYX-2925 200 mg, baseline 1.64±1.30, p=0.042",1.32±1.15 kgf/cm^2
same,resting posterior insula Glx levels following evoked pain,"posterior insula Glx; FIG. 5: 20 mg vs placebo, 19 patients, p=0.032",significantly reduce resting posterior insula Glx levels
same,pain-evoked increase in posterior insula Glx at the visit,posterior insula Glx; NYX-2925 20 mg visit,not significant
same,posterior insula pain-related Glx/tCr level increases,"posterior insula Glx; NYX-2925 20 mg vs placebo, FIG. 3A, p<0.05",reduction in pain related Glx/tCr level increases
same,posterior insula evoked pain Glx levels compared to the placebo visit,posterior insula Glx; NYX-2925 20 mg,trend for NYX-2925 20 mg and 200 mg to reduce evoked pain Glx levels
same,posterior insula Glx levels post-pain (ratios to creatine only),"posterior insula Glx; NYX-2925 200 mg compared to placebo, p<0.05",significant decrease in Glx levels
same,pain-evoked increase in posterior insula Glx at the visit,posterior insula Glx; NYX-2925 200 mg visit,not significant
same,posterior insula pain-related Glx/tCr level increases,"posterior insula Glx; NYX-2925 200 mg vs placebo, FIG. 3B, p<0.05",reduction in pain related Glx/tCr level increases
same,posterior insula evoked pain Glx levels compared to the placebo visit,posterior insula Glx; NYX-2925 200 mg,trend for NYX-2925 20 mg and 200 mg to reduce evoked pain Glx levels
